The values that follow come from ChEMBL document CHEMBL3085693, “Discovery of a potent inhibitor of replication protein a protein-protein interactions using a fragment-linking approach” (J Med Chem, 2013).

Assay [1] deals with T1, Replication protein A 70 kDa DNA-binding subunit (Homo sapiens, UniProt P27694). The assay is described as follows: Binding affinity to RPA70N (1 to 120) site2 (unknown origin) expressed in Escherichia coli BL21-DE3 cells by NMR spectroscopy.
The target in assay [2] is T1, Replication protein A 70 kDa DNA-binding subunit. The assay is described as follows: Binding affinity to RPA70N (1 to 120) site1 (unknown origin) expressed in Escherichia coli BL21-DE3 cells by NMR spectroscopy.
Assay [3] has the same target. Nature of the assay: Binding affinity to RPA70N (1 to 120) (unknown origin) expressed in Escherichia coli BL21-DE3 cells by NMR spectroscopy.
The target is the same in assay [4]. The assay is described as follows: Binding affinity to RPA70N (1 to 120) (unknown origin) expressed in Escherichia coli BL21-DE3 cells by FPA assay.
Assay [5] shares this target. The assay is described as follows: Binding affinity to RPA70NAB (unknown origin) by FPA assay.
For assay [6] the target is unchanged. Nature of the assay: Displacement of FITC-ss-DNA from RPA70AB domain (unknown origin) by FPA assay.
For assay [7] the target is unchanged. Nature of the assay: Displacement of FITC-ss-DNA from RPA70NAB domain (unknown origin) by FPA assay.
Assay [8] has the same target. Nature of the assay: Displacement of FITC-ATRIP2 from RPA70NAB domain (unknown origin) by FPA assay.
Assay [9] has the same target. Nature of the assay: Displacement of FITC-ATRIP2 from RPA70N (1 to 120) (unknown origin) by FPA assay.

T1 sequence (P27694 whole entry): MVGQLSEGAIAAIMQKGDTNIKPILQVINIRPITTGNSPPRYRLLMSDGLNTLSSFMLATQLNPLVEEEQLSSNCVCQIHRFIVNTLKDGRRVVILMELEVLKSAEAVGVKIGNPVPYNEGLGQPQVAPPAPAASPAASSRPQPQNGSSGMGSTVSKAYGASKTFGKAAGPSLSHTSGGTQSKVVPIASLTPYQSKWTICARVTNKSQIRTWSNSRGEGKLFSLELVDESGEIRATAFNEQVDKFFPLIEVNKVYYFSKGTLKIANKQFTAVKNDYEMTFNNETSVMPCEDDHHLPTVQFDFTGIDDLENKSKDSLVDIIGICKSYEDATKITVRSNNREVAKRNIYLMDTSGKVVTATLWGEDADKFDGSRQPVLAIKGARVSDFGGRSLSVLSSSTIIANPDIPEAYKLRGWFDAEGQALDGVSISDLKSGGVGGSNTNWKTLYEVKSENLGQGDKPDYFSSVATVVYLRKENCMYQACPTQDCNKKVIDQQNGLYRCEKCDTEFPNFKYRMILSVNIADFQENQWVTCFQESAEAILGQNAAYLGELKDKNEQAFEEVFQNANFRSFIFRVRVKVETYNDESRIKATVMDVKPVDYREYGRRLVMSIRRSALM

A word on the Kd: it is the free concentration of one partner at which half of the binding sites on the other are occupied at equilibrium, for simple one-to-one binding. Consider `O=C(O)c1cc(-c2ccc(F)cc2)n[nH]1`, for which the Kd in assay [1] was determined as 1120 µM.

In turn, `Cc1cccc2c(-c3ccccc3)c(C(=O)O)[nH]c12` showed an equilibrium dissociation constant (Kd) in assay [2] of 640 µM.

Regarding `O=C(O)c1ccc(-c2ccc(F)c(Cl)c2)o1`, the figures for the Kd in [1] and in [2] were 1400 µM and 710 µM, respectively.

As to `Cc1cccc(-n2nc(C(=O)O)cc2-c2ccccc2)c1`, the Kd in assay [1] is above 2000 µM; in [2], 580 µM.

The compound `CCc1c(O)[nH]c2nc3ccccc3n2c1=O` displayed a dissociation constant Kd in assay [1] of 1620 µM.

Consider `Cc1cccc(-n2nc(C(=O)O)cc2-c2ccc(OCc3ccc(-c4ccc(C(=O)O)o4)cc3)cc2)c1`, for which the Kd in assay [3] turned out to be 26 µM; in assay [4], 20 µM.

For the compound `O=C(O)c1cc(-c2ccc(CNC(=S)c3ccc(-c4ccc(C(=O)O)o4)cc3Cl)cc2)n(-c2ccc(Cl)c(Cl)c2)n1`, the Kd in assay [5] is 0.29 µM; in [6], 5.2 µM; in [7] it was 2.3 µM; in assay [8] it was 0.323 µM; in assay [9] it was 0.19 µM; in [4], 0.19 µM.

`O=C(O)c1cc(-c2ccc(CNC(=O)c3ccc(-c4ccc(C(=O)O)o4)cc3Cl)cc2)n(-c2ccc(Cl)c(Cl)c2)n1` showed a dissociation constant Kd in assay [3] of 2.9 µM.
